Experimental data taken from paper PMC4686831, “Identification of an allosteric binding site for RORγt inhibition” (Nature Communications, 2015).
Read-outs that look alike come from different tables or passages of the source.

How the values were obtained:
[1] = biological target: T1, human RORγt LBD (Homo sapiens, UniProt P51449); test: HTRF / TR-FRET cofactor peptide recruitment assay; assay type: biochemical; details: Fig. 2a
T1 construct: The human RORγt LBD used for the HTRF assay; made in house; host or cells: Escherichia coli BL21(DE3)
T1 sequence (P51449 269-508 limits assumed): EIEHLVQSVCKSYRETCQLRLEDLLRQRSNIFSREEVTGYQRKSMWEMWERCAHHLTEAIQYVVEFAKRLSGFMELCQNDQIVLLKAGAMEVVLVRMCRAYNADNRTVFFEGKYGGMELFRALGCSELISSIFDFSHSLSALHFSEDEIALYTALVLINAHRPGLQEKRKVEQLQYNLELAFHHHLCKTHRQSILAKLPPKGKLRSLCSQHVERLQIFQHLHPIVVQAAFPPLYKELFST
Protocol: The human RORγt LBD used for the HTRF assay was expressed as a His6-tag fusion protein from the pET15b expression vector in Escherichia coli BL21(DE3) cells. Cells transformed with this vector were grown in 2 × YT medium supplemented with ampicillin until an OD600=0.7 was reached. Protein expression was then induced with 0.1 mM isopropyl-b-d-thiogalactoside (IPTG). After incubation for 16 h at 16 °C, cell cultures were collected by centrifugation. The cells were lysed via sonication and the protein was purified via Ni^2+-affinity column chromatography.
The homogeneous TR-FRET assays were performed in triplicate with 20 nM His6-RORγt and 100 nM biotin labelled cofactor peptide. […] Assay buffer contained 100 mM HEPES (pH 7.5), 100 mM NaCl, 5 mM dithiothreitol (DTT) and 0.1% bovine serum albumin. The plates (white 384-well plates Greiner Bio-One) were incubated for 2 h at 4 °C before the FRET ratio was measured in a Tecan Infinite F500 plate reader. The data were analysed using Origin software.

[2] = biological target: RXRa (Homo sapiens, UniProt P19793); test: Receptor reporter assay selectivity panel: RXRa
Sequence of RXRa (P19793 227-462 limits assumed): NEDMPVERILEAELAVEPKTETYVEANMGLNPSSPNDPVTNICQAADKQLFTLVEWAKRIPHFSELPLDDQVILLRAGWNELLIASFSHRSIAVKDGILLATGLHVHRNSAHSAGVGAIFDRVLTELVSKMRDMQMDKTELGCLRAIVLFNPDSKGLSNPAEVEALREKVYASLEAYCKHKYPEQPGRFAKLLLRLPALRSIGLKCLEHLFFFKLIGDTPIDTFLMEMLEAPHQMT
Protocol: (§1) * Receptor Reporter Assay Selectivity Panel- Assays were performed by Indigo Bioscience (State
(§2) College, PA) according to their established protocols. The AR, ER, GR, MR, and PR assays utilize full
(§3) length receptor constructs whereas all others are chimeric with the GAL4 DNA binding domain.

[3] = biological target: TRb (Homo sapiens, UniProt P10828); test: Receptor reporter assay selectivity panel: TRb
Protocol: as §1, §2, §3

[4] = biological target: MR (Homo sapiens, UniProt P08235); test: Receptor reporter assay selectivity panel: MR
Sequence of MR (P08235 whole entry): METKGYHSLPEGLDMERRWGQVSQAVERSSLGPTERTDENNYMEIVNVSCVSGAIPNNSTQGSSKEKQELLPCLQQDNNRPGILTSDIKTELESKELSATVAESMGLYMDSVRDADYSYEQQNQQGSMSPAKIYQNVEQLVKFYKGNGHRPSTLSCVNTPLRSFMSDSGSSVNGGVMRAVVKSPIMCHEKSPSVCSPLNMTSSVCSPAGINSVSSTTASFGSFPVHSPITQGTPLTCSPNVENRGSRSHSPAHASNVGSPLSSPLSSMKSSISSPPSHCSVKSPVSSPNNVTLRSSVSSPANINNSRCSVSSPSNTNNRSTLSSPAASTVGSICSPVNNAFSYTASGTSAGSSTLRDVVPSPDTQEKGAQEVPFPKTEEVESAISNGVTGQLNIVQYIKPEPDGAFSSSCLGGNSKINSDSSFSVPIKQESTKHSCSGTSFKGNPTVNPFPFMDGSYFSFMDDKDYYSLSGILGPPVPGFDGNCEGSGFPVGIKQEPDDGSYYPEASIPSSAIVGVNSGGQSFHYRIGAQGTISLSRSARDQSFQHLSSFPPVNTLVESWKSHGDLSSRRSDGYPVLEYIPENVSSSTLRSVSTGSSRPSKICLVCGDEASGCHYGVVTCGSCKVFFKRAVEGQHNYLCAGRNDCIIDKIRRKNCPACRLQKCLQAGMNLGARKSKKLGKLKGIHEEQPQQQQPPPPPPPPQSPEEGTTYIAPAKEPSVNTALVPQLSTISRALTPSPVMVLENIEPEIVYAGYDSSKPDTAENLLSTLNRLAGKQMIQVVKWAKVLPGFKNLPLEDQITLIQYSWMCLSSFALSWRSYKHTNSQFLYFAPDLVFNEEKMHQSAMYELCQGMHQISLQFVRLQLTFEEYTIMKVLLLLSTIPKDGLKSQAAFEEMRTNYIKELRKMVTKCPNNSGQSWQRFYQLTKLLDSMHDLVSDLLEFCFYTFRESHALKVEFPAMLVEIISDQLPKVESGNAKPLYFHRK
Protocol: as §1, §2, §3

[5] = system: IL-17 production in human PBMCs; test: PBMC Th17 polarization and IL-17 production assay; assay type: cell-based; details: 96 h, 4 days, mean±s.d., read-out: hPBMC IL17A IC50
Protocol: Test compounds were prepared as 10 mM stocks in DMSO and serially diluted 1:3 to provide an eight-concentration titration. […] Stimulatory cytokines were added to final concentrations of 25 ng ml^−1 IL-1B, 10 ng ml^−1 IL-23, 0.5 ng ml^−1 IL-2 and 10 ng ml^−1 IL-6 (all cytokines from R&D Systems). In addition, T-Activator CD3/28 Dynabeads (Invitrogen) were added to a concentration of 100,000 beads per ml. The stimulated cells were immediately dispensed into the assay plate containing serially diluted compound at a volume of 200 μl cells per well. Cell plates were then incubated at 37 °C and 5% CO2 for 4 days. Culture media (100 μl) was collected from each well and IL-17 expression was measured by enzyme-linked immunosorbent assay (R&D Systems) according to the manufacturer's instructions. Cell viability was assessed by the addition of 100 μl of CellTiter-Glo (Promega) to each well of the cell assay plate followed by luminescence detection on an Envision plate reader (PerkinElmer).

[6] = biological target: CAR2 (Homo sapiens, UniProt Q14994); test: Receptor reporter assay selectivity panel: CAR2
Protocol: as §1, §2, §3

[7] = biological target: AR (Homo sapiens, UniProt P10275); test: Receptor reporter assay selectivity panel (Indigo Bioscience): AR
Protocol: as §1, §2, §3

[8] = biological target: T2, PXR (Homo sapiens, UniProt O75469); test: Receptor reporter assay selectivity panel: PXR
T2 sequence (O75469 146-434 limits assumed): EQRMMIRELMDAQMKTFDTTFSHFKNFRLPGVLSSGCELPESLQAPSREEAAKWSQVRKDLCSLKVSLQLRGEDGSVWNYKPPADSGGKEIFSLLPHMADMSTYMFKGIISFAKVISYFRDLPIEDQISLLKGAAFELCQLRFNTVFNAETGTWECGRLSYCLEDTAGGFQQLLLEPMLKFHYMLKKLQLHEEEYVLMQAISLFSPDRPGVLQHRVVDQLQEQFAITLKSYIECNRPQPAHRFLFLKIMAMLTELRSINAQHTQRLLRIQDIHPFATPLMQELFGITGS
Protocol: as §1, §2, §3

[9] = biological target: PPARd (Homo sapiens, UniProt Q03181); test: Receptor reporter assay selectivity panel: PPARd
Sequence of PPARd (Q03181 171-441 limits assumed): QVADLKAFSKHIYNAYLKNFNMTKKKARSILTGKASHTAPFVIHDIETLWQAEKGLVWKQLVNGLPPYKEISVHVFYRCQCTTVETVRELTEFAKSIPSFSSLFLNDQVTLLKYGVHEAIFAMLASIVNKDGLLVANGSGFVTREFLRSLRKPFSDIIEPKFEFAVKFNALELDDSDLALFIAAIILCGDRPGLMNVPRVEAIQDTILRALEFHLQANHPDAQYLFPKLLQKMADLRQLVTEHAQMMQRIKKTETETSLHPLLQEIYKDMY
Protocol: as §1, §2, §3

[10] = biological target: AhR (Homo sapiens, UniProt P35869); test: Receptor reporter assay selectivity panel: AhR
Protocol: as §1, §2, §3

[11] = biological target: LXRb (Homo sapiens, UniProt P55055); test: Receptor reporter assay selectivity panel: LXRb
Sequence of LXRb (P55055 222-460 limits assumed): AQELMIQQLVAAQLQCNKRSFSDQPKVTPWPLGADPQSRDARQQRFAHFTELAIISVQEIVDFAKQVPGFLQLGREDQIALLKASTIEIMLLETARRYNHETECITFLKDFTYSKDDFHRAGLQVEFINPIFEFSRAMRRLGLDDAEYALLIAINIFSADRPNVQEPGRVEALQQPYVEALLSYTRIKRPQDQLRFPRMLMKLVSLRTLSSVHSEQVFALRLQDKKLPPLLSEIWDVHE
Protocol: as §1, §2, §3

[12] = biological target: PPARg (Homo sapiens, UniProt P37231); test: Receptor reporter assay selectivity panel: PPARg
Protocol: as §1, §2, §3

[13] = biological target: RARb (Homo sapiens, UniProt P10826); test: Receptor reporter assay selectivity panel: RARb
Sequence of RARb (P10826 183-417 limits assumed): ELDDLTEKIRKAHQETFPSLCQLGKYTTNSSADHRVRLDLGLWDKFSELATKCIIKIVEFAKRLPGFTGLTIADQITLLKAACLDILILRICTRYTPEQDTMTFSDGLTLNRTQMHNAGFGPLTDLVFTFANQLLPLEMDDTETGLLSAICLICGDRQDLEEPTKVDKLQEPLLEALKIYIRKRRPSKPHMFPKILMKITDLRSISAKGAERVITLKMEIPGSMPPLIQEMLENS
Protocol: as §1, §2, §3

[14] = system: CD36 and FABP4 gene expression in MSCs; set-up: dose or concentration left out as unconfirmed; details: MRL-299, data not shown
[15] = biological target: FXR (Homo sapiens, UniProt Q96RI1); test: Receptor reporter assay selectivity panel: FXR
Sequence of FXR (Q96RI1 262-486 limits assumed): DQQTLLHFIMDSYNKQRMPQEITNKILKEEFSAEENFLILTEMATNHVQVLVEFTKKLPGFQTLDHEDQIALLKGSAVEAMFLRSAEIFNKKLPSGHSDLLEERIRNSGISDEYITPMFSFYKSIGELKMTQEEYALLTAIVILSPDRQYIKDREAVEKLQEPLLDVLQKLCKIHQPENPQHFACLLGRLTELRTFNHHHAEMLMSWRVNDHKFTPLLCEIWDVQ
Protocol: as §1, §2, §3

[16] = biological target: ERa (Homo sapiens, UniProt P03372); test: Receptor reporter assay selectivity panel: ERa
Sequence of ERa (P03372 whole entry): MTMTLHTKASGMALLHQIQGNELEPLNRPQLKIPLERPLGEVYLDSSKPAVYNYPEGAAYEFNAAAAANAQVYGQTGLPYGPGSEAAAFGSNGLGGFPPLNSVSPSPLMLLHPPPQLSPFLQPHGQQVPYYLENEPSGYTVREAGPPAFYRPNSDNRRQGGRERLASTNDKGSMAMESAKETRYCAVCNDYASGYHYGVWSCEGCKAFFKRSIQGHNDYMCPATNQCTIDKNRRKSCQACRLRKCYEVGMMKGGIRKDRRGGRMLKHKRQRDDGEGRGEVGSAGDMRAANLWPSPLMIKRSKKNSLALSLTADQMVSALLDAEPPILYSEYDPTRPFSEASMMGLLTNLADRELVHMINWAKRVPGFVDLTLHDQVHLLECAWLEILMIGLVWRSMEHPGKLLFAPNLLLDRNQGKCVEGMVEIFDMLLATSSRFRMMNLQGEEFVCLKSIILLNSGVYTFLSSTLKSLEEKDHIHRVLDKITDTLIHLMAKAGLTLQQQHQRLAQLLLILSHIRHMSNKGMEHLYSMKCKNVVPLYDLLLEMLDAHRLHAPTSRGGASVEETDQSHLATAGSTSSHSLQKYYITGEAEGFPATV
Protocol: as §1, §2, §3

[17] = biological target: ERb (Homo sapiens, UniProt Q92731); test: Receptor reporter assay selectivity panel: ERb
Protocol: as §1, §2, §3

[18] = biological target: RXRg (Homo sapiens, UniProt P48443); test: Receptor reporter assay selectivity panel: RXRg
Protocol: as §1, §2, §3

[19] = system: adiponectin gene expression; test: Adiponectin gene expression in MSCs; details: read-out: IC50, inhibition of adiponectin gene expression
[20] = biological target: CAR1 (Homo sapiens, UniProt Q14994); test: Receptor reporter assay selectivity panel: CAR1
Protocol: as §1, §2, §3

[21] = biological target: PR (Homo sapiens, UniProt P06401); test: Receptor reporter assay selectivity panel: PR
Sequence of PR (P06401 whole entry): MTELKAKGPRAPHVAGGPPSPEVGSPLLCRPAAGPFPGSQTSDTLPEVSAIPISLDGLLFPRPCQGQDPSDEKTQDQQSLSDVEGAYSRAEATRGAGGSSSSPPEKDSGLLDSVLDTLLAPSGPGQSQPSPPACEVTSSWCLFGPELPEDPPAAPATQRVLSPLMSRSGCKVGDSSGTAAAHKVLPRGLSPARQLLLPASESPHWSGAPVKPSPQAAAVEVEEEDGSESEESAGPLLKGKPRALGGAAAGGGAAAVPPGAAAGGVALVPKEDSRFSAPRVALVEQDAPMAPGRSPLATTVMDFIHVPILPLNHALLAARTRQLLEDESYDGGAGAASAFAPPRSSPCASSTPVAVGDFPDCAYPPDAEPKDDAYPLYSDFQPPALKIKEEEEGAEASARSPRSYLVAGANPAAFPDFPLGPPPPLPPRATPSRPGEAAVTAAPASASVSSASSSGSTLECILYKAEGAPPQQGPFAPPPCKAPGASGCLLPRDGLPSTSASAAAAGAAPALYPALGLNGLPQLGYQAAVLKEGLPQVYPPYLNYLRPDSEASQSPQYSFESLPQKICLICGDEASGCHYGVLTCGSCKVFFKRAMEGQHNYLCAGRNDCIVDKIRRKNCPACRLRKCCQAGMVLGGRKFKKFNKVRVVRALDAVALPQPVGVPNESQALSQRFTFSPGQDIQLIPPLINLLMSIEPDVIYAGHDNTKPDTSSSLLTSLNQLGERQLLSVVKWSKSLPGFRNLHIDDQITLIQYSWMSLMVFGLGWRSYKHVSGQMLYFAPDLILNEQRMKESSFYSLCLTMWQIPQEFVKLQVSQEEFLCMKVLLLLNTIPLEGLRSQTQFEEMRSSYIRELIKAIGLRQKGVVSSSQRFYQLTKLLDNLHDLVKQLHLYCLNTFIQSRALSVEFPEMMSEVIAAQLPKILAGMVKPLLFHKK
Protocol: as §1, §2, §3

[22] = system: Human mesenchymal stem cells (MSCs); test: Adipogenesis of human mesenchymal stem cells (PPARγ dependent); details: read-out: IC50, inhibition of adipogenesis
[23] = biological target: PPARa (Homo sapiens, UniProt Q07869); test: Receptor reporter assay selectivity panel: PPARa
Protocol: as §1, §2, §3

[24] = biological target: CAR3 (Homo sapiens, UniProt Q14994); test: Receptor reporter assay selectivity panel: CAR3
Protocol: as §1, §2, §3

[25] = biological target: RXRb (Homo sapiens, UniProt P28702); test: Receptor reporter assay selectivity panel: RXRb
Sequence of RXRb (P28702 296-533 limits assumed): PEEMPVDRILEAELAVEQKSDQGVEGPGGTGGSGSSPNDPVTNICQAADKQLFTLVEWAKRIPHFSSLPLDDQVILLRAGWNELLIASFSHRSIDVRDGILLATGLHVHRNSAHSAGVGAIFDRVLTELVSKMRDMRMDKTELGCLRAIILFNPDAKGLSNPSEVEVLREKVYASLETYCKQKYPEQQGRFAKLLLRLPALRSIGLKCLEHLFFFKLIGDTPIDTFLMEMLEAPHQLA
Protocol: as §1, §2, §3

[26] = biological target: LXRa (Homo sapiens, UniProt Q13133); test: Receptor reporter assay selectivity panel: LXRa
Protocol: as §1, §2, §3

[27] = biological target: T3, RARg (Homo sapiens, UniProt P13631); test: Receptor reporter assay selectivity panel: RARg
T3 sequence (P13631 185-419 limits assumed): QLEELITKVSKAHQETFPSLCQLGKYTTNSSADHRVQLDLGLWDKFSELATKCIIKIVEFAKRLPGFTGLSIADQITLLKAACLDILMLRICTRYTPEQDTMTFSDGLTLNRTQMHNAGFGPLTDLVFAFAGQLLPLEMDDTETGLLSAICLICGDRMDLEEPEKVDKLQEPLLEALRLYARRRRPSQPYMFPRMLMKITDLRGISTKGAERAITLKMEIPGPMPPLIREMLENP
Protocol: as §1, §2, §3

[28] = biological target: VDR (Homo sapiens, UniProt P11473); test: Receptor reporter assay selectivity panel: VDR
Protocol: as §1, §2, §3

[29] = biological target: RARa (Homo sapiens, UniProt P10276); test: Receptor reporter assay selectivity panel: RARa
Protocol: as §1, §2, §3

[30] = biological target: GR (Homo sapiens, UniProt P04150); test: Receptor reporter assay selectivity panel: GR
Sequence of GR (P04150 whole entry): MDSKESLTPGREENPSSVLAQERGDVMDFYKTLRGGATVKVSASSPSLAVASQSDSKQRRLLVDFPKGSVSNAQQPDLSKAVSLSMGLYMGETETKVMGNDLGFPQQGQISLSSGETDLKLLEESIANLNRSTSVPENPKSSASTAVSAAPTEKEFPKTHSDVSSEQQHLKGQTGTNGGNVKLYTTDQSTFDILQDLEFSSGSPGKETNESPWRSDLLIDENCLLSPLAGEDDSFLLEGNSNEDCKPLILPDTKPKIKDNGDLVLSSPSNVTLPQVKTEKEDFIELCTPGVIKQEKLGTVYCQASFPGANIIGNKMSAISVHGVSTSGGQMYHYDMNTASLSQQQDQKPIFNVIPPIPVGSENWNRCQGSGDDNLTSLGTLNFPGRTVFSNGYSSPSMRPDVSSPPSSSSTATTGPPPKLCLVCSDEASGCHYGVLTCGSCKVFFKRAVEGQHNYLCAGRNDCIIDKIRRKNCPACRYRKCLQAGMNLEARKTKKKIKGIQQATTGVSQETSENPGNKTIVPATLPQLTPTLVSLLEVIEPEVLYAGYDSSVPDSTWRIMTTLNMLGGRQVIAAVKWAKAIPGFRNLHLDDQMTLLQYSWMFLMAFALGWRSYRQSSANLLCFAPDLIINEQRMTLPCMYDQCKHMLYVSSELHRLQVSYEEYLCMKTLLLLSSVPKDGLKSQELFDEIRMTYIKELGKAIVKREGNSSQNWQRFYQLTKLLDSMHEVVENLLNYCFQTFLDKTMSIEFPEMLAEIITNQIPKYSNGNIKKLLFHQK
Protocol: as §1, §2, §3

[31] = biological target: TRa (Homo sapiens, UniProt P10827); test: Receptor reporter assay selectivity panel: TRa
Protocol: as §1, §2, §3

[32] = system: IL17a mRNA expression in EL4 cells; test: Quantitative IL17a RT-PCR in EL4 cells; assay type: cell-based, mouse; details: 10 μM, 24 h, vs DMSO, normalized to GAPDH
Protocol: EL4 cells (Sigma-Aldrich) were grown in DMEM (Gibco). At 24 h after the cells were seeded onto a 12-well plate, the cells were treated with ligands 1–3 (from 10 mM stock in DMSO) or DMSO. After 24 h, the cells were collected and RNA was isolated using a RNeasy Plus Micro Kit (Qiagen) and reverse transcribed using the iScrip cDNA biosynthesis kit (Bio-Rad). Quantitative RT–PCR was performed to analyse mRNA levels of mouse IL17a levels using SYBR green technology (Bio-Rad) on a CFX Real-Time System (Bio-Rad). Primer sequences used for IL17a:[45] Fw: 5′-[…]-3′, Rev: 5′-[…]-3′ and Gapdh: Fw: 5′-[…]-3′, Rev: 5′-[…]-3′. The level of IL17a mRNA expression was normalized to that of Gapdh expression. All data are expressed as the mean±s.e.m. (n=6). Statistical analysis was performed using an one-way analysis of variance comparing against the DMSO control following Dunnett post hoc test.

Structure (SMILES): CC(C)CCC[C@@H](C)[C@H]1CC[C@H]2[C@@H]3CC=C4C[C@@H](O)CC[C@]4(C)[C@H]3CC[C@]12C [Cholesterol, cholesterol, reference compound]
- effect on interaction of RORγt-LBD with cofactor peptide [1]: weak activator

Structure (SMILES): O=C(O)c1ccc(-c2nn(C(=O)c3c(Cl)cccc3C(F)(F)F)c3cccc(F)c23)c(F)c1 [MRL-299]
- EC50 [2]: > 30 µM
- IC50 [2]: 7.42 µM
- EC50 [3]: > 30 µM
- IC50 [3]: 5.73 µM
- EC50 [4]: > 30 µM
- IC50 [4]: 20 µM
- IC50 [5]: 0.0094 ± 0.0052 µM
- EC50 [6]: > 30 µM
- EC50 [7]: > 30 µM
- IC50 [7]: 12 µM
- EC50 [8]: 4.62 µM
- IC50 [8]: > 30 µM
- agonist maximum, % of rifampicin max ([8]; PXR, relative to rifampicin control): 63%
- EC50 [9]: > 30 µM
- IC50 [9]: 28 µM
- EC50 [10]: > 30 µM
- EC50 [11]: > 30 µM
- IC50 [11]: 21.5 µM
- EC50 [12]: 0.686 µM
- IC50 [12]: 0.517 µM
- EC50 [13]: > 30 µM
- IC50 [13]: 12.3 µM
- induction of CD36 gene expression [14]: no induction
- induction of FABP4 gene expression [14]: no induction
- EC50 [15]: > 30 µM
- IC50 [15]: 13.6 µM
- EC50 [16]: > 30 µM
- IC50 [16]: > 30 µM
- EC50 [17]: > 30 µM
- IC50 [17]: 10.8 µM
- EC50 [18]: > 30 µM
- IC50 ([19]; Homo sapiens): ~30 µM
- IC50 [20]: 16.7 µM
- EC50 [21]: > 30 µM
- IC50 [21]: > 30 µM
- IC50 ([22]; Homo sapiens, Mesenchymal stem cells): ~50 µM
- EC50 [23]: > 30 µM
- IC50 [23]: 19.1 µM
- EC50 [24]: > 30 µM
- EC50 [25]: > 30 µM
- IC50 [25]: 28 µM
- EC50 [26]: > 30 µM
- IC50 [26]: 23.2 µM
- EC50 [27]: 0.364 µM
- IC50 [27]: 3.11 µM
- agonist maximum, % of ATRA max ([27]; RARg, relative to ATRA control): 20%
- EC50 [28]: > 30 µM
- IC50 [28]: > 30 µM
- EC50 [29]: > 30 µM
- EC50 [30]: > 30 µM
- IC50 [30]: 18.5 µM
- EC50 [31]: > 30 µM
- IC50 [31]: 4.49 µM

Structure (SMILES): O=C(O)c1ccc(-c2nn(C(=O)c3ccccc3C(F)(F)F)c3ccccc23)cc1 [MRL-058]
- IL17a mRNA levels [32]: significantly reduced

Structure (SMILES): O=C(O)c1ccc(-c2nn(C(=O)c3ccccc3)c3ccccc23)cc1 [MRL-003]
- IL17a mRNA levels [32]: did not reduce
- IC50 ([1]; read-out: IC50, inhibition of coactivator binding (cofactor peptide recruitment)): 0.28 ± 0.117 µM

Structure (SMILES): O=C(O)c1ccc(-c2nn(C(=O)c3c(Cl)cccc3C(F)(F)F)c3ccccc23)cc1 [MRL-871]
- IC50 [5]: 0.0396 ± 0.018 µM
- IL17a mRNA levels [32]: significantly reduced

Structure (SMILES): CN(CCOc1ccc(CC2SC(=O)NC2=O)cc1)c1ccccn1 (stereo not drawn) [Rosiglitazone, rosiglitazone, reference compound]
- induction of CD36 gene expression [14]: 3 fold
- induction of FABP4 gene expression [14]: 2 fold

Structure (SMILES): O=C(Nc1ccccc1)c1cc([N+](=O)[O-])ccc1Cl [GW9662, reference compound]
- IC50 ([19]; human MSCs, data not shown): 1 µM
- IC50 ([22]; human MSCs under adipogenic conditions, data not shown): 5.4 µM
